Reference: ChEMBL document CHEMBL5725412, “Substituted pyrazolo[1,5-a]pyrazines as negative allosteric modulators of metabotropic glutamate receptor 3” (2017)
pIC50: −log10 of the molar value.

Test: mGlu5 Ca2+ Flux Assay: HEK 293A cells stably expressing rat mGlu5 were plated in black-walled, clear-bottomed, poly-D-lysine coated 384-well plates in 20 μL of assay medium (DMEM containing 10% dialyzed FBS, 20 mM HEPES, 100 units/mL penicillin/streptomycin plus 250 ng/mL Fungizone, and 1 mM sodium pyruvate) at a density of 20K cells/well. The cells were grown overnight at 37° C. in the presence of 5% CO2. The next day, medium was removed and the cells incubated with 20 μL of 2.3 μM Fluo-4, AM prepared as a 2.3 mM stock in DMSO and mixed in a 1:1 ratio with 10% (w/v) pluronic acid F-127 and diluted in assay buffer (Hank's balanced salt solution, 20 mM HEPES, and 2.5 mM probenecid) for 45 minutes at 37° C. Dye was removed, 20 μL of assay buffer was added, and the plate was incubated for 5 minutes at room temperature.

## COc1ccc(NCc2cc3n(n2)CCN(c2ccc(F)c(F)c2)C3=O)cc1
HEK293-A
  pIC50: 5.83

## COc1ccc(N(C)Cc2cc3n(n2)CCN(c2ccc(OC)cc2)C3=O)cc1
HEK293-A
  pIC50: 5.54

## Cc1cccc(NCc2cc3n(n2)[C@H](C)CN(c2ccc(F)cc2)C3=O)c1
  pIC50: 5.92

## COc1ccc(N(C)Cc2cc3n(n2)CCN(c2c(F)cccc2F)C3=O)cc1
HEK293-A
  pIC50: 5.99

## O=C1c2cc(CNc3ccc(OC(F)F)cc3)nn2CCN1c1ccc(F)cc1
  pIC50: 6.48

## Cc1cccc(NCc2cc3n(n2)[C@@H](C)CN(c2ccc(F)cc2)C3=O)c1
HEK293-A
  pIC50: 5.74
